Conditions: rat, in vivo, 4 weeks
Procedure: The starting dose of 10 mg QD was selected based on non-clinical, 4-week toxicology studies conducted in rats and dogs. […] The proposed human dose was based on one-tenth of the STD10 in rats corrected for body surface area (mg/m^2).

COCCNCc1ccc(-c2cc3nccc(Oc4ccc(NC(=O)C5(C(=O)Nc6ccc(F)cc6)CC5)cc4F)c3s2)nc1 [sitravatinib, Sitravatinib]
Highest dose not exceeding the severely toxic dose in 10% of animals (STD10): 10 mg/kg
